Results reported in patent publication EP4582418A1, “CRYSTALLINE FORM OF QUINOLINE DERIVATIVE INHIBITOR, PREPARATION METHOD THEREFOR AND USE THEREOF” (TransThera Sciences (Nanjing), Inc., priority 2022, dated 2024).

What was measured:
[1] = PK evaluation of crystal forms in rats; format: in vivo; conditions: SD rats, PO 60 mg/kg
Method: The experimental crystal forms I and II of the methanesulfonate of the compound of formula (I) were each prepared into a suspension solution with 0.5% HPMC. The compound solutions were intragastrically administered to SD rats at a dose of 60 mg/kg. Blood samples were collected at time points of 15 min, 30 min, 1 h, 2 h, 4 h, 6 h, 8 h, 24 h, 48 h, 72 h, and 96 h after administration.
The animals were fixed, with tails warmed in a water bath 10 min before each sampling time point. About 100 µL of blood was collected via the tail vein, and the blood samples were collected in anticoagulation tubes containing EDTA-K2. The blood samples were then centrifuged at 8,000 rpm for 6 min at 4 °C to give plasma samples. The plasma samples were prepared within 30 min after blood collection. The plasma samples were stored in a refrigerator at -80 °C before the test.
The sample to be tested was taken out from the -80 °C refrigerator, naturally thawed at room temperature, and vortexed for 5 min. 20 µL of plasma sample was precisely pipetted to a 1.5 mL centrifuge tube, and 200 µL of internal standard working solution (a solution of tolbutamide in methanol, 100 ng/mL) was added. The resulting mixture was thoroughly mixed, vortexed for 5 min, and centrifuged at 12,000 rpm for 5 min. 50 µL of supernatant was precisely pipetted to a 96-well plate pre-loaded with 150 µL of water per well, and the resulting mixture was vortexed for 5 min and then used for LC-MS/MS analysis.
The concentrations of the test samples were calculated by Analyst 1.6.3 from AB Sciex. Parameters such as mean, standard deviation, and coefficient of variation (excluding those output directly by Analyst 1.6.3) were calculated by Microsoft Excel. PK parameters were calculated by Pharsight Phoenix 6.1 software NCA (Tmax was in median).

[2] = Solubility in FaSSIF (pH 6.5) and FeSSIF (pH 5.0) buffer solutions; format: physicochemical; conditions: for 24-hour solubility in buffer solutions with different pH values pH6.5: FaSSIF (pH 6.5); for 24-hour solubility in buffer solutions with different pH values pH6.5 / 24-hour solubility in buffer solutions with different pH values pH5.0: 37 °C, shaken 24 h; for 24-hour solubility in buffer solutions with different pH values pH5.0: FeSSIF (pH 5.0); for solubility compared with the compound of formula (I): test solutions at pH 5.0 and pH 6.5
Method: Test substances: the crystal forms I, II, III, and IV of the methanesulfonate of the compound of formula (I).
• 1) 0.42 g of NaOH, 3.44 g of anhydrous NaH2PO4, and 6.19 g of NaCl were dissolved in about 0.9 L of pure water; • 2) the pH was adjusted to 6.5 using 1 N NaOH or 1 N HCl, and the buffer solution was supplemented to the volume of 1 L with pure water at room temperature; • 3) 2.24 g of FaSSIF powder was added to about 0.5 L of the buffer solution, and the mixture was stirred until the powder was completely dissolved; the resulting solution was supplemented to the volume of 1 L with the buffer solution at room temperature, and after being left to stand for 2 h, it was ready for use.
• 1) 4.04 g of NaOH, 8.65 g of glacial acetic acid, and 11.87 g of NaCl were dissolved in about 0.9 L of pure water; • 2) the pH was adjusted to 5.0 using 1 N NaOH or 1 N HCl, and the buffer solution was supplemented to the volume of 1 L with pure water at room temperature; • 3) 11.2 g of FeSSIF powder was added to about 0.5 L of the buffer solution, and the mixture was stirred until the powder was completely dissolved; the resulting solution was supplemented to the volume of 1 L with the buffer solution at room temperature, and after being left to stand for 2 h, it was ready for use.
An appropriate amount of each test substance was placed into separate 10 mL PE tubes, and FaSSIF (pH 6.5) buffer solution and FeSSIF (pH 5.0) buffer solution, each 10 mL, were added into the tubes, respectively. The tubes were then placed in a constant temperature water bath shaker and shaken at 37 °C for 24 h. After 24 h, samples were collected and centrifuged. The supernatants were diluted, and the solubility of the supernatants was measured.

[3] = Stability test under influencing factors (high temperature, high humidity, illumination); format: physicochemical; conditions: for changes in the appearance and purity: left to stand under conditions of the influencing factors for 30 days
Method: Test substances: the crystal forms I, II, III, and IV of the methanesulfonate of the compound of formula (I) of the present disclosure.
Methodology: Appropriate amounts of samples of the crystal forms I, II, III, and IV of the methanesulfonate of the compound of formula (I) were separately left to stand open under the conditions of a high temperature (60 °C), a high humidity (RH 92.5%), and illumination (4500±500 Lux); sampling was performed on days 5, 10, and 30 to investigate changes in the appearance, purity, and crystal form of the samples.

[4] = Left to stand open at 60 °C for 5 days
[5] = Left to stand open at 60 °C for 10 days
[6] = Left to stand open at 60 °C for 30 days
[7] = Left to stand open at RH 92.5% for 5 days
[8] = Left to stand open at RH 92.5% for 10 days
[9] = Left to stand open at RH 92.5% for 30 days
[10] = Left to stand open under illumination (4500±500 Lux) for 5 days
[11] = Left to stand open under illumination (4500±500 Lux) for 10 days
[12] = Left to stand open under illumination (4500±500 Lux) for 30 days

| 24-hour solubility in buffer solutions with different pH values pH6.5 [2] | 24-hour solubility in buffer solutions with different pH values pH5.0 [2] | solubility compared with the compound of formula (I) [2] | Appearance ([3]; 0 days) | Purity ([3]; 0 days) | Appearance [3, 4] | Purity [3, 4] | Appearance [3, 5] | Purity [3, 5] | Appearance [3, 6] | Purity [3, 6] | Appearance [3, 7] | Purity [3, 7] | Appearance [3, 8] | Purity [3, 8] | Appearance [3, 9] | Purity [3, 9] | Appearance [3, 10] | Purity [3, 10] | Appearance [3, 11] | Compound | also measured |
| --- | --- | --- | --- | --- | --- | --- | --- | --- | --- | --- | --- | --- | --- | --- | --- | --- | --- | --- | --- | --- | --- |
| 0.023 mg/mL | 0.31 mg/mL | significantly improved | White or off-white solid | 99.74% | White or off-white solid | 99.74% | White or off-white solid | 99.73% | White or off-white solid | 99.72% | White or off-white solid | 99.74% | White or off-white solid | 99.74% | White or off-white solid | 99.74% | White or off-white solid | 99.75% | White or off-white solid | COc1cc2nccc(Oc3ccc(NC(=O)c4nn(C(C)C)cc(-c5ccc(F)cc5)c4=O)nc3)c2cc1OC [Crystal form II, N-(5-((6,7-dimethoxyquinolin-4-yl)oxy)pyridin-2-yl)-5-(4-fluorophenyl)-1-isopropyl-4-oxo-1,4-dihydropyridazine-3-carboxamide] | AUClast ([1]; 0-96 h, n = 3): 3054.395 µg·h/mL; Cmax ([1]; n = 3): 58.933 µg/mL; λ_z ([1]; n = 3, suspension in 0.5% HPMC): 0.026 h⁻¹; Tmax ([1]; median, n = 3): 6.00 h; tz1/2 ([1]; terminal half-life, n = 3): 27.0 h; Purity [3, 11]: 99.74%; Appearance [3, 12]: White or off-white solid; Purity [3, 12]: 99.75%; changes in the appearance and purity [3]: no significant changes |
| 0.023 mg/mL | 0.025 mg/mL | significantly improved | White or off-white solid | 99.90% | White or off-white solid | 99.90% | White or off-white solid | 99.90% | White or off-white solid | 99.89% | White or off-white solid | 99.90% | White or off-white solid | 99.90% | White or off-white solid | 99.90% | White or off-white solid | 99.90% | White or off-white solid | COc1cc2nccc(Oc3ccc(NC(=O)c4nn(C(C)C)cc(-c5ccc(F)cc5)c4=O)nc3)c2cc1OC [Crystal form III, N-(5-((6,7-dimethoxyquinolin-4-yl)oxy)pyridin-2-yl)-5-(4-fluorophenyl)-1-isopropyl-4-oxo-1,4-dihydropyridazine-3-carboxamide] | Purity [3, 11]: 99.91%; Appearance [3, 12]: White or off-white solid; Purity [3, 12]: 99.91%; changes in the appearance and purity [3]: no significant changes |
| 0.0002 mg/mL | 0.004 mg/mL |  |  |  |  |  |  |  |  |  |  |  |  |  |  |  |  |  |  | COc1cc2nccc(Oc3ccc(NC(=O)c4nn(C(C)C)cc(-c5ccc(F)cc5)c4=O)nc3)c2cc1OC [Compound of formula (I), N-(5-((6,7-dimethoxyquinolin-4-yl)oxy)pyridin-2-yl)-5-(4-fluorophenyl)-1-isopropyl-4-oxo-1,4-dihydropyridazine-3-carboxamide] |  |
| 0.023 mg/mL | 0.31 mg/mL | significantly improved | White or off-white solid | 99.91% | White or off-white solid | 99.91% | White or off-white solid | 99.91% | White or off-white solid | 99.87% | White or off-white solid | 99.92% | White or off-white solid | 99.92% | White or off-white solid | 99.92% | White or off-white solid | 99.91% | White or off-white solid | COc1cc2nccc(Oc3ccc(NC(=O)c4nn(C(C)C)cc(-c5ccc(F)cc5)c4=O)nc3)c2cc1OC [Crystal form IV, N-(5-((6,7-dimethoxyquinolin-4-yl)oxy)pyridin-2-yl)-5-(4-fluorophenyl)-1-isopropyl-4-oxo-1,4-dihydropyridazine-3-carboxamide] | Purity [3, 11]: 99.91%; Appearance [3, 12]: White or off-white solid; Purity [3, 12]: 99.88%; changes in the appearance and purity [3]: no significant changes |
